Measurements published in PubChem BioAssay (NCI).
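Compound exposure: 48 hours, 5 concentrations, 96-well plates. GI50 is the concentration that inhibits growth by half. Definition used: TGI = concentration required for complete inhibition of growth.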

Key:
Assay in all cases: NCI-60 cell line screen, 48 h
RXF 393 renal = tested on: RXF 393 renal
HCT-15 colon = tested on: HCT-15 colon
EKVX NSCLC = tested on: EKVX NSCLC
HS 578T breast = tested on: HS 578T breast
SR leukemia = tested on: SR leukemia
NCI-H226 lung = tested on: NCI-H226 lung
HT29 colon = tested on: HT29 colon
LXFL 529 NSCLC = tested on: LXFL 529 NSCLC
XF 498 CNS = tested on: XF 498 CNS
HOP-18 NSCLC = tested on: HOP-18 NSCLC
DMS 114 small cell lung = tested on: DMS 114 small cell lung
DMS 273 small cell lung = tested on: DMS 273 small cell lung
SNB-78 CNS = tested on: SNB-78 CNS

Structure (SMILES)	GI50 (RXF 393 renal)	TGI (RXF 393 renal)	GI50 (HCT-15 colon)	TGI (HCT-15 colon)	GI50 (EKVX NSCLC)	TGI (EKVX NSCLC)	GI50 (HS 578T breast)	TGI (HS 578T breast)	GI50 (SR leukemia)	TGI (SR leukemia)	GI50 (NCI-H226 lung)	TGI (NCI-H226 lung)	GI50 (HT29 colon)	TGI (HT29 colon)	TGI (LXFL 529 NSCLC)	TGI (XF 498 CNS)	TGI (HOP-18 NSCLC)	TGI (DMS 114 small cell lung)	TGI (DMS 273 small cell lung)	TGI (SNB-78 CNS)
Nc1nc(Nc2ccc(C3CCC(N4CCOCC4)CC3)cc2)nn1-c1ccccn1 (centres undefined)	2.03 µM	5.77 µM	3.6 µM	> 100 µM	8.21 µM	> 100 µM	1.64 µM	7.41 µM	0.366 µM	3.29 µM	2.4 µM	> 58.4 µM	3.11 µM	> 100 µM	–	–	–	–	–	–
CCOC(=O)NC(=O)c1cn(CCN2CCN(c3ncnc4nc[nH]c34)CC2)c(=O)[nH]c1=O	–	> 100 µM	–	> 100 µM	–	> 100 µM	–	–	–	> 100 µM	–	> 100 µM	–	> 100 µM	> 100 µM	> 100 µM	> 100 µM	> 100 µM	–	–
CCc1cccc(C)c1NC(=O)C(=O)Cc1nc2ccccc2s1	–	> 100 µM	–	–	–	> 100 µM	–	–	–	> 100 µM	–	> 100 µM	–	> 100 µM	> 100 µM	–	> 100 µM	> 100 µM	> 100 µM	> 100 µM
COC(=O)c1cc(Cl)ccc1NC(=O)c1ccc([N+](=O)[O-])cc1	–	65.6 µM	–	> 100 µM	–	> 100 µM	–	–	–	–	–	42.5 µM	–	35.1 µM	> 100 µM	35.9 µM	–	> 100 µM	77.3 µM	> 100 µM
CCCOC(=O)N1CCN(/[N+]([O-])=N/Oc2ccc([N+](=O)[O-])cc2[N+](=O)[O-])CC1	8.67 µM	23.8 µM	2.2 µM	5.65 µM	2.64 µM	7.79 µM	4.95 µM	50.9 µM	0.373 µM	> 100 µM	1.46 µM	4.3 µM	2.05 µM	> 100 µM	–	–	–	–	–	–
Cc1ccccc1NC(=O)C(=O)CC(=O)c1c(C)n([O-])c2ccccc2[n+]1=O	–	> 100 µM	–	> 100 µM	–	> 100 µM	–	–	–	0.0875 µM	–	> 100 µM	–	> 100 µM	> 100 µM	–	> 100 µM	> 100 µM	> 100 µM	> 100 µM
O=C1CC(S(=O)(=O)O)C=C1Nc1cccc(Cl)c1 (centres undefined)	–	> 100 µM	–	–	–	> 100 µM	–	–	–	> 100 µM	–	> 100 µM	–	> 100 µM	> 100 µM	> 100 µM	> 100 µM	–	> 100 µM	> 100 µM
CC#CC(=O)SCCNC(=O)CC	–	> 9.55 µM	–	> 10 µM	–	> 10 µM	–	> 10 µM	–	> 7.91 µM	–	> 10 µM	–	> 10 µM	–	–	–	–	–	–
COc1ccc(/C=N/N=C(\N)NO)c(OC)c1	–	> 100 µM	–	> 100 µM	–	> 100 µM	–	–	–	–	–	> 100 µM	–	–	86.3 µM	–	> 100 µM	> 100 µM	–	> 100 µM
COc1c(Cl)cc(NC(=S)C#N)cc1Cl	–	> 81.4 µM	–	46.8 µM	–	> 74 µM	–	–	–	> 92.2 µM	–	57.6 µM	–	> 65.8 µM	85.8 µM	–	60.1 µM	36.3 µM	83.2 µM	85.9 µM
COc1ccc(OC)c2c1C(=O)C1CC1(Br)C2=O (centres undefined)	–	–	–	> 100 µM	–	> 100 µM	–	–	–	–	–	–	–	> 100 µM	> 100 µM	> 100 µM	–	> 100 µM	> 100 µM	–
O=CN/C=C/c1ccc(O)c(O)c1	–	> 100 µM	–	> 100 µM	–	> 100 µM	–	–	–	–	–	> 100 µM	–	> 100 µM	> 100 µM	> 100 µM	–	> 100 µM	> 100 µM	> 100 µM
C1=C2/CC[C@H](Sc3ccccc3)[C@H]2C2(CCCCC/1)OCCO2	–	–	–	> 100 µM	–	54.5 µM	–	–	–	> 100 µM	–	–	–	> 100 µM	> 100 µM	–	> 100 µM	–	> 100 µM	> 100 µM
Cc1ccc(N2C(=O)C3C=CC(n4[nH]c(=O)n(Cc5ccccc5)c4=O)CC3C2=O)cc1 (centres undefined)	–	> 100 µM	–	> 100 µM	–	> 100 µM	–	–	–	> 100 µM	–	> 100 µM	–	> 100 µM	> 100 µM	> 100 µM	> 100 µM	> 100 µM	> 100 µM	> 100 µM
O=CC1CCCc2ccccc21 (centres undefined)	–	> 100 µM	–	> 91.6 µM	–	> 100 µM	–	–	–	> 100 µM	–	> 100 µM	–	> 100 µM	> 100 µM	> 100 µM	> 100 µM	> 71.4 µM	> 100 µM	> 100 µM
CCOC(=O)C(=Cc1cccnc1C)C(=O)OCC	–	9.8 µM	–	19.4 µM	–	42.1 µM	–	–	–	26.2 µM	–	53.3 µM	–	18.4 µM	20.2 µM	25.6 µM	21.7 µM	31.3 µM	14 µM	–
O=C(Nc1ccc(Cl)cc1)Nc1ccc(Nc2nncc3ccccc23)cc1	4.28 µM	21.4 µM	1.59 µM	11.8 µM	2.95 µM	25.3 µM	3.83 µM	27.7 µM	3.89 µM	23.4 µM	2.46 µM	12.5 µM	2.65 µM	14.1 µM	–	–	–	–	–	–
Cc1cccc(C(C)C)c1NC(=O)CC1C(=O)Nc2ccccc2S1(=O)=O (centres undefined)	–	25.8 µM	–	19.5 µM	–	> 53.8 µM	–	–	–	4.32 µM	–	49.9 µM	–	26.8 µM	35.5 µM	> 59.9 µM	70.8 µM	45.5 µM	20.5 µM	> 79.3 µM
O=C1c2c(O)cccc2C(C2OC(CO)C(O)C(O)C2O)c2cc(CO)cc(O)c21 (centres undefined)	–	> 100 µM	–	> 100 µM	–	> 100 µM	–	> 100 µM	> 100 µM	> 100 µM	–	> 100 µM	–	> 100 µM	–	–	–	–	–	–
O=c1c2ccccc2nc(-c2ccccc2)n1NC1OC(CO)C(O)C(O)C1O (centres undefined)	–	–	–	> 100 µM	–	> 100 µM	–	–	–	–	–	> 100 µM	–	> 100 µM	> 100 µM	> 100 µM	> 100 µM	> 100 µM	> 100 µM	> 100 µM
